Data as given in patent US6905841B2, “Enzymatic substrates for detecting Pseudomonas aeruginas” (Biomerieux S.A., priority 1999, dated 2005).
Where two headings read alike, the source gives them in different places.

Columns and labels:
β-alanine aminopeptidase [1] = assay: APIZYM-type test strips with β-alanyl-β-naphthylamide; format: cell-based; details: Pasteurella multocida; five strains
β-alanine aminopeptidase [2] = assay: as above; format: cell-based; details: Enterobacter cloacae; five strains
β-alanine aminopeptidase [3] = assay: as above; format: cell-based; details: Hafnia alvei; five strains
β-alanine aminopeptidase [4] = assay: as above; format: cell-based; details: Sphingobacterium multivorum; five strains
β-alanine aminopeptidase [5] = assay: as above; format: cell-based; details: Serratia odorifera; five strains
β-alanine aminopeptidase [6] = assay: as above; format: cell-based; details: Chryseobacterium balustinum; 1 strain
β-alanine aminopeptidase [7] = assay: as above; format: cell-based; details: Serratia liquefaciens; five strains
β-alanine aminopeptidase [8] = assay: as above; format: cell-based; details: Sphingomonas paucimobilis; five strains
β-alanine aminopeptidase [9] = assay: as above; format: cell-based; details: Myroïdes spp.; five strains
β-alanine aminopeptidase [10] = assay: as above; format: cell-based; details: Proteus mirabilis; five strains
β-alanine aminopeptidase [11] = format: cell-based; details: out of the seventy nine (79) tested
β-alanine aminopeptidase [12] = assay: APIZYM-type test strips with β-alanyl-β-naphthylamide; format: cell-based; details: Bordetella bronchiseptica; five strains
β-alanine aminopeptidase [13] = assay: as above; format: cell-based; details: Klebsiella pneumoniae, spp. oxytoca; five strains
β-alanine aminopeptidase [14] = assay: as above; format: cell-based; details: Moraxella lac. sp. liquefaciens; 7 strains
β-alanine aminopeptidase [15] = assay: as above; format: cell-based; details: Pseudomonas luteola; five strains
β-alanine aminopeptidase [16] = assay: as above; format: cell-based; details: Achromobacter xylosoxidans, spp. xylosoxidans; five strains
β-alanine aminopeptidase [17] = assay: as above; format: cell-based; details: Klebsiella ozaenae; five strains
β-alanine aminopeptidase [18] = assay: as above; format: cell-based; details: Ochrobactrum anthropi; five strains
β-alanine aminopeptidase [19] = assay: as above; format: cell-based; details: Pasteurella haemolytica; five strains
β-alanine aminopeptidase [20] = assay: as above; format: cell-based; details: Serratia plymuthica; five strains
β-alanine aminopeptidase [21] = assay: as above; format: cell-based; details: Comamonas acidovorans; five strains
β-alanine aminopeptidase [22] = details: Klebsiella pneumoniae; 3 strains tested; read after 22 to 24 hours
β-alanine aminopeptidase [23] = details: Chryseobacterium meningosepticum; 2 strains tested; read after 22 to 24 hours
β-alanine aminopeptidase [24] = details: Shewanella putrefaciens; 1 strain tested; read after 22 to 24 hours
β-alanine aminopeptidase [25] = details: Moraxella non liquefaciens; 2 strains tested; read after 22 to 24 hours
β-alanine aminopeptidase [26] = details: Aeromonas hydrophila; 2 strains tested; read after 22 to 24 hours
β-alanine aminopeptidase [27] = details: Sphingomonas paucimobilis; 2 strains tested; read after 22 to 24 hours
β-alanine aminopeptidase [28] = details: Escherichia coli; 2 strains tested; read after 22 to 24 hours
β-alanine aminopeptidase [29] = details: Stenotrophomonas maltophilia; 2 strains tested; read after 22 to 24 hours
β-alanine aminopeptidase [30] = details: Serratia liquefaciens; 1 strain tested; read after 22 to 24 hours
β-alanine aminopeptidase [31] = details: Providencia stuartii; 1 strain tested; read after 22 to 24 hours
β-alanine aminopeptidase [32] = details: Pseudomonas aeruginosa; 13 strains tested; read after 22 to 24 hours
β-alanine aminopeptidase [33] = details: Streptococcus pyogenes; 2 strains tested; read after 22 to 24 hours
β-alanine aminopeptidase [34] = details: Pseudomonas fluorescens; 2 strains tested; read after 22 to 24 hours
β-alanine aminopeptidase [35] = details: Proteus mirabilis; 2 strains tested; read after 22 to 24 hours

β-alanyl-β-naphthylamide
β-alanine aminopeptidase activity, result (β-alanine aminopeptidase [1]): negative | β-alanine aminopeptidase activity, result (β-alanine aminopeptidase [2]): negative | β-alanine aminopeptidase activity, result (β-alanine aminopeptidase [3]): negative | β-alanine aminopeptidase activity, result (β-alanine aminopeptidase [4]): negative | β-alanine aminopeptidase activity, result (β-alanine aminopeptidase [5]): negative | β-alanine aminopeptidase activity, result (β-alanine aminopeptidase [6]): negative | β-alanine aminopeptidase activity, result (β-alanine aminopeptidase [7]): positive | β-alanine aminopeptidase activity, result (β-alanine aminopeptidase [8]): negative | β-alanine aminopeptidase activity, result (β-alanine aminopeptidase [9]): negative | β-alanine aminopeptidase activity, result (β-alanine aminopeptidase [10]): negative | number of species found to possess β-alanine aminopeptidase activity (β-alanine aminopeptidase [11]): 6 species | β-alanine aminopeptidase activity, result (β-alanine aminopeptidase [12]): negative | β-alanine aminopeptidase activity, result (β-alanine aminopeptidase [13]): negative | β-alanine aminopeptidase activity, result (β-alanine aminopeptidase [14]): negative | β-alanine aminopeptidase activity, result (β-alanine aminopeptidase [15]): negative | β-alanine aminopeptidase activity, result (β-alanine aminopeptidase [16]): negative | β-alanine aminopeptidase activity, result (β-alanine aminopeptidase [17]): negative | β-alanine aminopeptidase activity, result (β-alanine aminopeptidase [18]): positive | β-alanine aminopeptidase activity, result (β-alanine aminopeptidase [19]): negative | β-alanine aminopeptidase activity, result (β-alanine aminopeptidase [20]): negative | β-alanine aminopeptidase activity, result (β-alanine aminopeptidase [21]): negative

NCCC(=O)c1c(N)cc(Cl)c(O)c1Cl
Number of negative results (β-alanine aminopeptidase [22]): 3 | Number positive results (β-alanine aminopeptidase [22]): 0 | Number of negative results (β-alanine aminopeptidase [23]): 2 | Number positive results (β-alanine aminopeptidase [23]): 0 | Number of negative results (β-alanine aminopeptidase [24]): 1 | Number positive results (β-alanine aminopeptidase [24]): 0 | Number of negative results (β-alanine aminopeptidase [25]): 2 | Number positive results (β-alanine aminopeptidase [25]): 0 | Number of negative results (β-alanine aminopeptidase [26]): 2 | Number positive results (β-alanine aminopeptidase [26]): 0 | Number of negative results (β-alanine aminopeptidase [27]): 2 | Number positive results (β-alanine aminopeptidase [27]): 0 | Number of negative results (β-alanine aminopeptidase [28]): 2 | Number positive results (β-alanine aminopeptidase [28]): 0 | Number of negative results (β-alanine aminopeptidase [29]): 2 | Number positive results (β-alanine aminopeptidase [29]): 0 | Number of negative results (β-alanine aminopeptidase [30]): 0 | Number positive results (β-alanine aminopeptidase [30]): 1 | Number of negative results (β-alanine aminopeptidase [31]): 1 | Number positive results (β-alanine aminopeptidase [31]): 0 | Number of negative results (β-alanine aminopeptidase [32]): 0 | Number positive results (β-alanine aminopeptidase [32]): 13 | Number of negative results (β-alanine aminopeptidase [33]): 2 | Number positive results (β-alanine aminopeptidase [33]): 0 | Number of negative results (β-alanine aminopeptidase [34]): 1 | Number positive results (β-alanine aminopeptidase [34]): 1 | Number of negative results (β-alanine aminopeptidase [35]): 2 | Number positive results (β-alanine aminopeptidase [35]): 0
